# Columns and labels:
# [1] = system: SOD-2; test: Real-Time PCR gene expression of SOD-2 in IL-1β-treated human chondrocytes; format: cell-based; details: 2 h pre-treatment 1% w/v, IL-1β 10 ng/mL 24 h; untreated cells taken as 1
# Text: The objective of the study was to evaluate the effects of chondroitin or chondroitin sulphate on gene expression of GRP78 and SOD-2 in human chondrocytes, after treatment with the pro-inflammatory cytokine IL-1β.
# Human chondrocytes extracted from nasal cartilage treated with IL-1β, a pro-inflammatory cytokine which acts as mediator in the activation of the biological mechanisms underlying the onset of OA, were used in the study. In particular, the modulation of two markers involved in the manifestation of the inflammatory state, chaperonin GRP78 and the enzyme superoxide dismutase (SOD-2), was evaluated.
# In a standard experiment, 10^4 cells were seeded per well of a 24-well multiwell plate, and after 5 days, when confluency was reached, the cells were starved for 24 hours (incubation in DMEM with 0.5% FBS). The cells were then treated for 2 h with 1% w/v of chondroitin (C) or chondroitin sulphate (CS) (endotoxin content ≤0.1 EU/mg), in DMEM without FBS; the control was maintained under the same conditions, but without the addition of C or CS. IL-1 β at the concentration of 10 ng/mL was then added to the cultures. After 24 h hours' incubation the cells were recovered and the RNA was extracted from them with Trizol Reagent, as described in the kit manual (Life Technologies Ltd, Milan Italy). […]
# [2] = system: GRP78; test: Western blotting protein expression of GRP78 in IL-1β-treated human chondrocytes; format: cell-based; details: densitometric analysis of Western blotting versus tubulin; control = 1
# Description: (§1) In a standard experiment, 10^4 cells were seeded per well of a 24-well multiwell plate, and after 5 days, when confluency was reached, the cells were starved for 24 hours (incubation in DMEM with 0.5% FBS). The cells were then treated for 2 h with 1% w/v of chondroitin (C) or chondroitin sulphate (CS) (endotoxin content ≤0.1 EU/mg), in DMEM without FBS; the control was maintained under the same conditions, but without the addition of C or CS. IL-1 β at the concentration of 10 ng/mL was then added to the cultures. After 24 h hours' incubation the cells were recovered and the RNA was extracted from them with Trizol Reagent, as described in the kit manual (Life Technologies Ltd, Milan Italy). The gene expression values are confirmed by the protein expression data obtained in Western blotting by densitometric analysis of the GRP78 protein bands and SOD2 compared with the constitutive tubulin gene (Table 6)
# [3] = system: SOD-2; test: Western blotting protein expression of SOD-2 in IL-1β-treated human chondrocytes; format: cell-based; details: densitometric analysis of Western blotting versus tubulin; control = 1
# Description: as §1
# [4] = system: volunteers suffering from severe impairment of the knee joint; test: Viscosupplementation and cartilage repair in volunteers with knee joint impairment; format: in vivo, human
# Description: The aim of the study was to evaluate the therapeutic potential of the hyaluronic acid-chondroitin combination (HA-C) in joint disease associated with damage to the cartilaginous component of the joint. The study was conducted on 30 volunteers suffering from severe impairment of the knee joint, with damage to the cartilaginous component, evident ongoing inflammatory symptoms, swelling and pain. The volunteers, aged between 25 and 45 years, of both sexes, were randomised into three groups of 10; the control group was treated with saline, the HA group with hyaluronic acid and the HA-C group with a mixture of hyaluronic acid and chondroitin. The viscosupplementation treatment was performed 3 times at 2-month intervals by injecting into the joint 2 mL of a sterile, pyrogen-free solution consisting of a saline solution (0.9% NaCl) for the control group, a 20 mg/mL solution of hyaluronic acid 1,200 KDa for the HA group and a 20 mg/mL solution of hyaluronic acid 1,200 KDa+20 mg/mL of chondroitin for the HA-C group. Before and at the end of the 6-month study the volunteers underwent an X-ray and MRI scan of the joint. Three orthopaedic surgeons independently evaluated the development of the pathological symptoms (pain, inflammatory state and swelling), and repair of cartilage damage, over time (before treatment, and after 3 and 6 months), on a scale of 1 to 5 (where 1 represents absence of healing, and 5 indicates total remission of the pathological symptoms and complete repair of the damage to the cartilage tissue).
# [5] = system: volunteers suffering from dry eye; test: Ophthalmic eyedrops in volunteers suffering from dry eye; format: in vivo, human
# Description: Two ophthalmic preparations were compared: a conventional one based on hyaluronic acid and one based on chondroitin, both at the concentration of 3% w/v in NaCl saline solution at pH 7.4. The eyedrops were prepared in single-dose packaging sterilised in the autoclave. […] The volunteers, of both sexes, aged between 45 and 60 years, were randomised into two groups of 15, and treated with the two types of eyedrops. Under medical control the inflammatory state of the corneal surface was evaluated at the beginning and end of the treatment, and the evaluations of the treated patients relating to tolerability, duration of the wetting effect, and visual alteration after application, were recorded. A scale of 1 to 5 was used for the clinical evaluations and the patients' evaluations, where 5 represents optimum resolution of the pathological condition and its sequelae. […]
# [6] = system: human bladder carcinoma cell line HT-1376; test: Inhibition of growth of bladder cancer cells and polysaccharide-antitumoral synergism; format: cell-based; details: HT-1376, after 72 h, product taken individually
# Description: Human bladder cancer cell lines HT-1376 were used as system model, evaluating the ability of different combinations of GEM or MCC and C or CS to inhibit growth.
# Human bladder carcinoma cell line HT-1376 (American Type Tissue Cultures Collection, Rockville, Md.) was cultured in DMEM supplemented with heat inactivated 10% foetal bovine serum (FBS), 20 mM 4,2-hydroxyethyl-1-piperazinyl-ethanesulphonic acid (HEPES), 100 U/mL penicillin, 100 µg/mL streptomycin, 1% w/v sodium L-glutamine and 1% w/v pyruvate. The cells were cultured in a humidified atmosphere comprising 95% air/5% CO2 at 37° C. For the study of synergism between C or CS and MMC or GEM in inhibiting the growth of HT-1376, the cells were seeded in 96-well plates at a density of 6*10^3 cells/well. After 24 hours' incubation at 37° C. the cells were treated with different concentrations of C or CS or GEM or MMC, and polysaccharide-antitumoral combinations thereof. The evaluation of polysaccharide-antitumoral synergism was based on analysis after 72 hours' treatment of the fraction curves of the surviving cells versus the concentration of antitumoral, conducted with the Calcusyn computer program (Biosoft, Ferguson, Mo.). The combination index values (CI) of <1, 1 and >1 indicate synergy, additivity and antagonism respectively in the polysaccharide-antitumoral interaction.
# [7] = system: HT-1376 cells; test: Flow cytometry of apoptotic and necrotic cells (Annexin V-FITC/PI); format: cell-based, human; set-up: unit not given here; details: 48 h, alone or combined
# Description: Flow cytometry was used to evaluate the quantity of apoptotic or necrotic cells. Fluorescein isothiocyanate (Annexin V-FITC) combined with propidium iodide (PI) was used as marker; the apoptotic cells were Annexin V-FITC positive and PI negative, and the necrotic cells were Annexin V-FITC positive and PI positive. The cells were labelled by incubating them with Annexin V-FITC (Diagnostics MedSystems) and PI (Sigma) in a binding buffer (10 mM HEPES, pH 7.4, 150 mM NaCl, 5 mM KCl, 1 mM MgCl2, 2.5 mM CaCl2) for 10 min at ambient temperature, and then washing and resuspending the cell material in the same buffer. The apoptotic and necrotic cells were analysed by flow cytometry (FACScan, Becton-Dickinson), acquiring an average of 2×10^4 events per sample, with determinations in triplicate on three separate experiments.
# [8] = 0.04 μg/mL of C or CS and 0.15 μg/mL of GEM
# [9] = 5.7 μg/mL of C or CS and 1.7 μg/mL of MMC
molecule,measurement,setting,value
"IL-1β: pro-inflammatory cytokine, 10 ng/mL, positive control",gene expression of SOD-2,[1],22 ± 4
same,Protein expression value of GRP78,[2],1.15 ± 0.15
same,Protein expression value of SOD-2,[3],1.96 ± 0.20
"hyaluronic acid [HA, reference compound]",Cartilage repair,"[4]; 0 months, scale of 1 to 5",1.0 ± 0.1
same,Inflammation,"[4]; 0 months, scale of 1 to 5",1.3 ± 0.2
same,Swelling,"[4]; 0 months, scale of 1 to 5",1.2 ± 0.1
same,Pain,"[4]; 0 months, scale of 1 to 5, 5 total remission",1.6 ± 0.2
same,Cartilage repair,"[4]; 3 months, scale of 1 to 5",1.5 ± 0.2
same,Inflammation,"[4]; 3 months, scale of 1 to 5",3.1 ± 0.2
same,Pain,"[4]; 3 months, scale of 1 to 5",3.1 ± 0.4
same,Swelling,"[4]; 3 months, scale of 1 to 5",3.1 ± 0.3
same,Inflammation,"[4]; 6 months, scale of 1 to 5",4.1 ± 0.5
same,Pain,"[4]; 6 months, scale of 1 to 5",4.0 ± 0.3
same,Doctor: corneal inflammation,"[5]; 0 days, 3% w/v eyedrops, scale of 1 to 5, 5 optimum",1.0 ± 0.1
same,Patient: absence of visual alteration,"[5]; 10 days, scale of 1 to 5",3.5 ± 0.2
same,Patient: tolerability,"[5]; 10 days, scale of 1 to 5",3.8 ± 0.2
same,Patient: wetting effect,"[5]; 10 days, scale of 1 to 5",4.0 ± 0.2
same,Patient: absence of visual alteration,"[5]; 20 days, scale of 1 to 5",3.2 ± 0.1
same,Patient: tolerability,"[5]; 20 days, scale of 1 to 5",3.7 ± 0.3
same,Patient: wetting effect,"[5]; 20 days, scale of 1 to 5",4.1 ± 0.3
same,Doctor: corneal inflammation,"[5]; 30 days, 3% w/v eyedrops 4 times a day, scale of 1 to 5",3.5 ± 0.2
same,Patient: absence of visual alteration,"[5]; 30 days, scale of 1 to 5",3.6 ± 0.2
same,Patient: tolerability,"[5]; 30 days, scale of 1 to 5",3.9 ± 0.3
same,Patient: wetting effect,"[5]; 30 days, scale of 1 to 5",4.4 ± 0.3
"Nc1ccn([C@@H]2O[C@H](CO)[C@@H](O)C2(F)F)c(=O)n1 [GEM, gemcitabine]",IC50,"[6]; Homo sapiens, read-out: IC50 (50% inhibition of growth)",0.5 µg/mL
same,Cell state: apoptotic advanced,[7]; [8],2 ± 1
same,Cell state: apoptotic early,[7]; [8],1 ± 1
same,Cell state: necrotic,[7]; [8],16 ± 3
same,Cell state: viable,[7]; [8],81 ± 3
"CO[C@@]12[C@H](COC(N)=O)C3=C(C(=O)C(C)=C(N)C3=O)N1C[C@@H]1N[C@@H]12 [MMC, mitomycin-C]",IC50 (50% inhibition of growth),[6],18 μ/mL
same,Cell state: apoptotic advanced,[7]; [9],2 ± 1
same,Cell state: apoptotic early,[7]; [9],1 ± 1
same,Cell state: necrotic,[7]; [9],33 ± 1
same,Cell state: viable,[7]; [9],64 ± 5
